Measurements published in patent EP1036783B1 (MERCK & CO. INC., priority 1999, dated 2000).

What was measured:
[1] = clinical; settings: human, in vivo
[2] = tested on: HMG-CoA reductase; settings: human, in vivo
[3] = tested on: HMG-CoA reductase; settings: following intraduodenal administration of dihydroxy open acid simvastatin

effect of itraconazole measured as the unchanged drug [1]: 1.5 fold | Tmax ([1]; SVA in plasma): 4.1 h | Tmax ([1]; Simyastatin Acid in plasma): 4.1 ± 2.1 h | half-life ([1]; t1/2, SV in plasma): 6.7 h | half-life ([1]; t1/2, SVA in plasma): 2.3 h | half-life ([1]; t1/2, Simyastatin Acid in plasma): 2.3 ± 0.5 h | Cmax, Active Inhibitors [2]: 5.7 = 3.0 ng eq/mL | Tmax, Active HMG-CoA reductase inhibitors [2]: 3.6 (2.5) hr | change by itraconazole pre-treatment in AUC and Cmax of HMG-CoA reductase inhibitory activity (total or active) [2]: 1.3-1.5 fold | lactonization of dihydroxy open acid simvastatin or its active metabolites [3]: occurred minimally
SMILES: CCC(C)(C)C(=O)O[C@H]1C[C@@H](C)C=C2C=C[C@H](C)[C@H](CC[C@@H](O)C[C@@H](O)CC(=O)O)[C@H]21 [SVA, dihydroxy open acid simvastatin]
